Assay [1] deals with H460 (NRF2 pathway mutant cell line with high AKR1C3 expression). Nature of the assay: In vitro cell proliferation assay (CellTiter-Glo), H460. Format: cell-based. The following applies: Homo sapiens, NCI-H460, 72 h; H460 cells, 3 days, CellTiter-Glo, top concentration 10 μM; read-out: H460 Qualified absolute AC50. Put shortly: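 Luminescent CellTiter-Glo readout after 3-day compound exposure at 37 °C; 8-point 1:5 series, top 10 μM final. Seeding: 800 cells/well for H460, 2000 cells/well for Hara, RPMI-1640 plus 10% FBS. AC50 and percentage activity derived after normalizing to DMSO (1%) and MG132 (30 μM) controls.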

Assay [2] deals with Hara (NRF2 pathway wild type cell line with low AKR1C3 expression). Nature of the assay: In vitro cell proliferation assay (CellTiter-Glo), Hara. Type of assay: cell-based. The following applies: 72 h; Hara cells, 3 days, CellTiter-Glo, top concentration 10 μM; read-out: HARA Qualified absolute AC50. The text has this: Cellular Proliferation Assay to Assess Compounds Activity in H460 (NRF2 Pathway Mutant Cell Line with High AKR1C3 Expression) and Hara (NRF2 Pathway Wild Type Cell Line with Low AKR1C3 Expression).
The cell lines A549 and H460 are NRF2 pathway mutant and specifically contain genetic alterations in KEAP1 (A549: G333C, H460: D236H) (Singh A. et al., 2006 PLoS Medicine 3(10) e420). In these cell lines the NRF2 pathway is constitutively active and these cells express high levels of NRF2 protein and NRF2 pathway target gene AKR1C3. […] They have low AKR1C3 expression.
In Vitro Cell Proliferation Assay
Day 1, for H460 800 cells/well or 40 μL of 2×10^4 cells/mL and for Hara 2000 cells/well or 40 μL of 5×10^4 cells/mL medium (RPMI-1640 supplemented with 10% fetal bovine serum and 1% penicillin/streptomycin) were seeded into 384-well tissue culture plates. Day 2, compounds were serially diluted 1:5 to generate 8 point dose response curves and added to cells for a final top concentration of 10 μM. DMSO (1%) control and MG132 (30 μM) controls are added in columns 23 and 24 respectively on each plate for positive and negative control. After incubation for 3 days at 37° C./5% CO2, 30 μl of CellTiter-Glo reagent (Promega) was added and the plates were incubated for 10 min on plate shaker. The amount of luminescence was determined using a Perkin Elmer Envision plate reader. CellTiter-Glo luminescence values of cells treated with DMSO and MG132 controls were used to normalize the data and calculate percentage activity and AC50s of compounds using the Helios Software suite.
Background: Cellular ATP, detected with luciferase, serves as a proxy for viable cell number.

In patent publication US11970497B2, “Tricyclic AKR1C3 dependent KARS inhibitors” (Novartis AG, priority 2019, dated 2024) one finds AC50 data, which are given here for 24 compounds.

For orientation: AC50 means the midpoint of the concentration-response curve, whichever way the signal moves.

As to `CN1c2ccc(F)cc2C(=O)CC12CCN(C(=O)NCc1ccc(F)c(C(=O)NCCO)c1)CC2` [Example 82, 6′-fluoro-N-(4-fluoro-3-((2-hydroxyethyl)carbamoyl)benzyl)-1′-methyl-4′-oxo-3′,4′-dihydro-1′H-spiro[piperidine-4,2′-quinoline]-1-carboxamide], the results for the AC50 in assay [1] and in assay [2] were 356 nM and > 10000 nM, respectively.

Consider `O=C1CC2(CCN(C(=O)NCc3ccc(F)cc3F)CC2)Nc2ccc(F)cc21` [Example 16, N-(2,4-difluorobenzyl)-6′-fluoro-4′-oxo-3′,4′-dihydro-1′H-spiro[piperidine-4,2′-quinoline]-1-carboxamide], for which the AC50 in assay [1] was 29 nM; in assay [2], > 10000 nM.

For `CN1c2ccc(F)cc2C(=O)CC12CCN(C(=O)NCc1ccc(F)c(N)c1)CC2` [Example 27, N-(3-amino-4-fluorobenzyl)-6′-fluoro-1′-methyl-4′-oxo-3′,4′-dihydro-1′H-spiro[piperidine-4,2′-quinoline]-1-carboxamide], the results for the AC50 in assay [1] and in assay [2] were 48 nM and > 10000 nM, respectively.

Consider `CN1c2ccc(F)cc2C(=O)CC12CCN(C(=O)NCc1ccc(F)cc1NCCO)CC2` [Example 86, 6′-fluoro-N-(4-fluoro-2-((2-hydroxyethyl)amino)benzyl)-1′-methyl-4′-oxo-3′,4′-dihydro-1′H-spiro[piperidine-4,2′-quinoline]-1-carboxamide], for which the AC50 in assay [1] is 379 nM; in assay [2], > 10000 nM.

In the case of `Nc1ccc(CNC(=O)N2CCC3(CC2)CC(=O)c2cc(F)ccc2N3)c(F)c1` [Example 98, N-(4-amino-2-fluorobenzyl)-6′-fluoro-4′-oxo-3′,4′-dihydro-1′H-spiro[piperidine-4,2′-quinoline]-1-carboxamide], the AC50 is 498 nM in assay [1] and > 10000 nM in assay [2].

Turning to `O=C1CC2(CCN(C(=O)NCc3cccc(-c4cnco4)c3)CC2)Nc2c(F)cc(F)cc21` [Example 35, 6′,8′-difluoro-N-(3-(oxazol-5-yl)benzyl)-4′-oxo-3′,4′-dihydro-1′H-spiro[piperidine-4,2′-quinoline]-1-carboxamide], the half-maximal activity concentration (AC50) amounted to 77 nM in assay [1] and 2720 nM in assay [2].

Turning to `NS(=O)(=O)c1cccc(CNC(=O)N2CCC3(CC2)CC(=O)c2cc(F)ccc2N3)c1` [Example 74, 6′-fluoro-4′-oxo-N-(3-sulfamoylbenzyl)-3′,4′-dihydro-1′H-spiro[piperidine-4,2′-quinoline]-1-carboxamide], the half-maximal activity concentration (AC50) in assay [1] is 305 nM; in assay [2] it was > 10000 nM.

Turning to `COCCNc1cc(CNC(=O)N2CCC3(CC2)CC(=O)c2cc(F)ccc2N3)ccc1F` [Example 99, 6′-fluoro-N-(4-fluoro-3-((2-methoxyethyl)amino)benzyl)-4′-oxo-3′,4′-dihydro-1′H-spiro[piperidine-4,2′-quinoline]-1-carboxamide], the AC50 was 507 nM in assay [1] and > 10000 nM in assay [2].

For the compound `O=C1CC2(CCN(C(=O)NCc3ccon3)CC2)Nc2ccc(F)cc21` [Example 118, 6′-fluoro-N-(isoxazol-3-ylmethyl)-4′-oxo-3′,4′-dihydro-1′H-spiro[piperidine-4,2′-quinoline]-1-carboxamide], the AC50 in assay [1] is 1010 nM; in assay [2], > 10000 nM.

In the case of `O=C1CC2(CCN(C(=O)NCc3cccc4nonc34)CC2)Nc2ccc(F)cc21` [Example 141, N-(benzo[c][1,2,5]oxadiazol-4-ylmethyl)-6′-fluoro-4′-oxo-3′,4′-dihydro-1′H-spiro[piperidine-4,2′-quinoline]-1-carboxamide], the AC50 in assay [1] is 2450 nM; in assay [2], > 10000 nM.

`O=C1CC2(CCN(C(=O)NCc3ccc(F)cc3OCC(F)(F)F)CC2)Nc2ccc(F)cc21` [Example 51, 6′-fluoro-N-(4-fluoro-2-(2,2,2-trifluoroethoxy)benzyl)-4′-oxo-3′,4′-dihydro-1′H-spiro[piperidine-4,2′-quinoline]-1-carboxamide]: the AC50 in assay [1] worked out at 128 nM; in assay [2] it was 4750 nM.

Take `O=C1CC2(CCN(C(=O)NCc3ccc(F)cc3)CC2)N(CCO)c2ccc(F)cc21` [Example 19, 6′-fluoro-N-(4-fluorobenzyl)-1′-(2-hydroxyethyl)-4′-oxo-3′,4′-dihydro-1′H-spiro[piperidine-4,2′-quinoline]-1-carboxamide]: the half-maximal activity concentration (AC50) came out at 31 nM in assay [1] and 694 nM in assay [2].

With `O=C1CC2(CCN(C(=O)NCc3ncccc3O)CC2)Nc2c(F)cc(F)cc21` [Example 63, 6′,8′-difluoro-N-((3-hydroxypyridin-2-yl)methyl)-4′-oxo-3′,4′-dihydro-1′H-spiro[piperidine-4,2′-quinoline]-1-carboxamide], the figures for the half-maximal activity concentration (AC50) in assay [1] and in assay [2] were 222 nM and > 10000 nM, respectively.

Take `CN1c2ccc(F)cc2C(=O)CC12CCN(C(=O)NCc1ccc(N)cc1)CC2` [Example 76, N-(4-aminobenzyl)-6′-fluoro-1′-methyl-4′-oxo-3′,4′-dihydro-1′H-spiro[piperidine-4,2′-quinoline]-1-carboxamide]: the AC50 in assay [1] was 309 nM; in assay [2], > 10000 nM.

Turning to `O=C1CC2(CCN(C(=O)NCc3ccc(F)cc3O)CC2)Nc2ccc(F)cc21` [Example 43, 6′-fluoro-N-(4-fluoro-2-hydroxybenzyl)-4′-oxo-3′,4′-dihydro-1′H-spiro[piperidine-4,2′-quinoline]-1-carboxamide], the values for the AC50 in assay [1] and in assay [2] were 99 nM and > 10000 nM, respectively.

For `Cc1cc(N)ccc1CNC(=O)N1CCC2(CC1)CC(=O)c1cc(F)ccc1N2` [Example 116, N-(4-amino-2-methylbenzyl)-6′-fluoro-4′-oxo-3′,4′-dihydro-1′H-spiro[piperidine-4,2′-quinoline]-1-carboxamide], the results for the AC50 in assay [1] and in assay [2] were 935 nM and > 10000 nM, respectively.

As to `Nc1ccc(CNC(=O)N2CCC3(CC2)CC(=O)c2cc(F)ccc2N3)cn1` [Example 136, N-((6-aminopyridin-3-yl)methyl)-6′-fluoro-4′-oxo-3′,4′-dihydro-1′H-spiro[piperidine-4,2′-quinoline]-1-carboxamide], the AC50 is 1990 nM in assay [1] and > 10000 nM in assay [2].

Take `CN1c2ccc(F)cc2C(=O)CC12CCN(C(=O)NCc1ccc(F)c(N)c1F)CC2` [Example 42, N-(3-amino-2,4-difluorobenzyl)-6′-fluoro-1′-methyl-4′-oxo-3′,4′-dihydro-1′H-spiro[piperidine-4,2′-quinoline]-1-carboxamide]: the concentration at half-maximal activity (AC50) in assay [1] is 94 nM; in assay [2] it was > 10000 nM.

For the compound `CN1c2ccc(F)cc2C(=O)CC12CCN(C(=O)NCc1cc(NCCO)c(F)cc1F)CC2` [Example 17, N-(2,4-difluoro-5-((2-hydroxyethyl)amino)benzyl)-6′-fluoro-1′-methyl-4′-oxo-3′,4′-dihydro-1′H-spiro[piperidine-4,2′-quinoline]-1-carboxamide], the AC50 is 30 nM in assay [1] and > 10000 nM in assay [2].

As for `COC1CN(c2cc(CNC(=O)N3CCC4(CC3)CC(=O)c3cc(F)ccc3N4)ccc2F)C1` [Example 102, 6′-fluoro-N-(4-fluoro-3-(3-methoxyazetidin-1-yl)benzyl)-4′-oxo-3′,4′-dihydro-1′H-spiro[piperidine-4,2′-quinoline]-1-carboxamide], the AC50 in assay [1] was found to be 555 nM; in assay [2], 3720 nM.

On to `NC(=O)Cc1cc(CNC(=O)N2CCC3(CC2)CC(=O)c2cc(F)ccc2N3)ccc1F` [Example 103, N-(3-(2-amino-2-oxoethyl)-4-fluorobenzyl)-6′-fluoro-4′-oxo-3′,4′-dihydro-1′Hspiro[piperidine-4,2′-quinoline]-1-carboxamide], for which the AC50 in assay [1] is 558 nM; in assay [2], > 10000 nM.

Turning to `O=C1CC2(CCN(C(=O)NCc3cccc(-c4ncc[nH]4)c3)CC2)Nc2ccc(F)cc21` [Example 130, N-(3-(1H-imidazol-2-yl)benzyl)-6′-fluoro-4′-oxo-3′,4′-dihydro-1′H-spiro[piperidine-4,2′-quinoline]-1-carboxamide], the AC50 was 1530 nM in assay [1] and > 10000 nM in assay [2].

As to `CN1c2ccc(F)cc2C(=O)CC12CCN(C(=O)NCc1ccc(F)c(OCCO)c1)CC2` [Example 3, 6′-fluoro-N-(4-fluoro-3-(2-hydroxyethoxy)benzyl)-1′-methyl-4′-oxo-3′,4′-dihydro-1′H-spiro[piperidine-4,2′-quinoline]-1-carboxamide], the AC50 in assay [1] amounted to 5 nM; in assay [2], 1760 nM.

In the case of `COc1cc(F)ccc1CNC(=O)N1CCC2(CC1)CC(O)c1cc(F)ccc1N2` (racemic) [Example 168, 6′-fluoro-N-(4-fluoro-2-methoxybenzyl)-4′-hydroxy-3′,4′-dihydro-1′H-spiro[piperidine-4,2′-quinoline]-1-carboxamide], the AC50 worked out at 41 nM in assay [1] and 49 nM in assay [2].
